One data set concerns the target Acetylcholinesterase (Electrophorus electricus, UniProt O42275). The experiment in a line: Inhibitory activity against acetylcholinesterase as a prodrug was demonstarted.
Data set [1] is described as follows: pKa value was determined. It counts as physicochemical.

Chain of Acetylcholinesterase (O42275 whole entry): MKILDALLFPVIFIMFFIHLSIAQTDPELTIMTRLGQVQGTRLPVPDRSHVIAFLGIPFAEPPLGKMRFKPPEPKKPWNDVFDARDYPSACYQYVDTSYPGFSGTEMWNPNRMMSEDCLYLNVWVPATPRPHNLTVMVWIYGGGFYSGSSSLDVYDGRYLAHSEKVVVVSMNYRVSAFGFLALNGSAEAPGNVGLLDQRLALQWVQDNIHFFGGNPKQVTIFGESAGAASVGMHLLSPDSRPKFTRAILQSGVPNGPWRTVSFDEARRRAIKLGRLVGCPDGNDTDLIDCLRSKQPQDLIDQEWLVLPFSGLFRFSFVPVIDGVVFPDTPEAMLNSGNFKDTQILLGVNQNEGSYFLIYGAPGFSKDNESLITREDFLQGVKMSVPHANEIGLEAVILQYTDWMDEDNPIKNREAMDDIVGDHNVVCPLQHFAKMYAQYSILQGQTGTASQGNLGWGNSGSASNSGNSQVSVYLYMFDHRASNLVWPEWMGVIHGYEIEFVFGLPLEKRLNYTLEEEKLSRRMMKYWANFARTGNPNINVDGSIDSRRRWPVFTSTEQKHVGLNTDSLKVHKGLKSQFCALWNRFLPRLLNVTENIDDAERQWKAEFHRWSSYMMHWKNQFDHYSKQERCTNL

Turning to `CC1c2cc(OC(=O)N(C)C)ccc2NC1[n+]1cccc(C(N)=O)c1` (configuration not stated), on Acetylcholinesterase, the IC50 was 50 µM. `CNC(=O)Oc1ccc2c(c1)[C@]1(C)CCN(C)[C@@H]1N2C` [PHYSOSTIGMINE] returned a pKa in data set [1] of 7.9.

(Values after ChEMBL document CHEMBL1126394, “Synthesis of 1-(2-Indolyl)pyridinium salts: a prodrug approach to acetylcholinesterase inhibition” (Bioorg Med Chem Lett, 1992).)
